A short description of data set [1]: Chemical stability under heating (HPLC). It is filed as physicochemical. As to the method:
The anhydride and hydrates were each introduced into a glass vial and maintained at 70° C. Thus the thermal decomposition with elapsed time was analysed by HPLC and the results thus obtained are described in Table 8

Data set [2] can be described thus: Equilibrium moisture content determination at several relative humidities. It is filed as physicochemical. Conditions: Karl Fischer. The source says:
Silica (anhydrous) and three saturated solutions of electrolytes prepared by dissolving the respective salts in water were each introduced into different desiccators to control the inner relative humidity to a specific value as represented in the following Table 7. Then, the equilibrium moisture contents of S-(−)-9-fluoro-6,7-dihydro-8-(4-hydroxypiperidin-1-yl)-5-methyl-1-oxo-1H,5H-benzo[i,j]quinolizine-2-carboxylic acid anhydrate and S-(−)-9-fluoro-6,7-dihydro-8-(4-hydroxypiperidin-1-yl)-5-methyl-1-oxo-1H,5H-benzo[i,j]quinolizine-2-carboxylic acid 0.2 hydrate prepared in Examples 1 and 2 respectively were determined at several relative humidities.
Specifically, 1 g of the sample was spread on a pre-weighed petridish and the total weight was accurately measured, then both the samples were placed in each desiccator of Table 8 The dessicators were allowed to stand at normal temperature for at least 3 days and the weight was measured agingly over this period. The weight changes were tabulated. At the end of 3 days all samples were taken to be weighed. The moisture content of each sample was determined by Karl Fischer analysis. Equilibrium moisture content at each relative humidity is represented in FIG. 1 (anhydrate) and FIG. 2 (0.2 hydrate).

The test system of data set [3] is P. vulgaris 66. In words: Effect of pH on potency of fluoroquinolones (MIC at pH 5.5 and 7.0). It counts as cell-based. Conditions: MIC pH 7 vs pH 5.5. The source says:
(§1) The test method was in accordance with the standard NCCLS protocol employing test media adjusted at pH 5.5 and 7.0.

The test system of data set [4] is S. aureus 25923. The data set is described as above. It counts as cell-based. Conditions: MIC pH 7 vs pH 5.5.
From the text: as §1

In data set [5] the test system is E. faecalis. The data set is described as above. It counts as cell-based. The following applies: MIC pH 7 vs pH 5.5.
From the text: as §1

In data set [6] the test system is Ps. Aeruginosa. The data set is described as above. It counts as cell-based. Conditions: MIC pH 7 vs pH 5.5.
From the text: as §1

Data set [7] has as its system S. aureus 1199-B. The data set is described as above. It counts as cell-based. The following applies: MIC pH 7 vs pH 5.5.
From the text: as §1

Data set [8] has as its system E. coli 25922. The data set is described as above. It counts as cell-based. Conditions: MIC pH 7 vs pH 5.5.
From the text: as §1

The subject of data set [9] is E. coli 2015. The data set is described as above. It counts as cell-based. Conditions: MIC pH 7 vs pH 5.5.
From the text: as §1

The subject of data set [10] is Acinetobacter 3109. The description is as above. It is filed as cell-based. Conditions: MIC pH 7 vs pH 5.5.
From the text: as §1

Data set [11] deals with P. rettgeri N 1764. The description is as above. It counts as cell-based. The following applies: MIC pH 7 vs pH 5.5.
From the text: as §1

For data set [12], the system named is Serratia marcescens 2702. Described as above. It is filed as cell-based. Conditions: MIC pH 7 vs pH 5.5.
From the text: as §1

Data set [13] concerns P. mirabilis 37. The data set is described as above. Conditions: MIC pH 7 vs pH 5.5. It is filed as cell-based.
From the text: as §1

In data set [14] the test system is Klebsiella 24037. Described as above. It counts as cell-based. Conditions: MIC pH 7 vs pH 5.5.
From the text: as §1

Data set [15] concerns MRSE STE-22. The data set can be described thus: In-vitro antimicrobial activity test (MIC, NCCLS). It counts as cell-based, Staphylococcus epidermidis. From the text:
(§2) The test method was in accordance with the standard NCCLS protocol.

Data set [16] deals with MRSA STA-4. The data set can be described thus: In-vitro antimicrobial activity test (MIC, NCCLS). It counts as cell-based, Staphylococcus aureus.
From the text: as §2

Data set [17] concerns Mupirocin-resistant Staph STA-34. The data set can be described thus: In-vitro antimicrobial activity test (MIC, NCCLS). It counts as cell-based, Staphylococcus aureus.
From the text: as §2

In data set [18] the test system is Corynebacterium jeikeium. In words: In-vitro antimicrobial activity test (MIC, NCCLS). It counts as cell-based.
From the text: as §2

The test system of data set [19] is Viridans group Streptococci. In words: In-vitro antimicrobial activity test (MIC, NCCLS). It counts as cell-based.
From the text: as §2

Data set [20] deals with Mycobacterium tuberculosis ATCC 27294. In words: In-vitro antimicrobial activity test (MIC, NCCLS). It counts as cell-based.
From the text: as §2

For data set [21], the system named is Enterococcus faecium. The data set can be described thus: In-vitro antimicrobial activity test (MIC, NCCLS). It counts as cell-based.
From the text: as §2

In data set [22] the test system is Haemophilus influenzae. In words: In-vitro antimicrobial activity test (MIC, NCCLS). It counts as cell-based.
From the text: as §2

Data set [23] concerns Propioni bacterium acnes. The data set can be described thus: In-vitro antimicrobial activity test (MIC, NCCLS). It counts as cell-based.
From the text: as §2

In data set [24] the test system is Enterococcus faecalis ATCC 29212. In words: In-vitro antimicrobial activity test (MIC, NCCLS). It is filed as cell-based.
From the text: as §2

In data set [25] the test system is Escherichia coli ATCC 25922. In words: In-vitro antimicrobial activity test (MIC, NCCLS). It is filed as cell-based.
From the text: as §2

The test system of data set [26] is Streptococcus pyogenes. In words: In-vitro antimicrobial activity test (MIC, NCCLS). It is filed as cell-based.
From the text: as §2

Data set [27] concerns Serratia marcescens. The data set can be described thus: In-vitro antimicrobial activity test (MIC, NCCLS). It counts as cell-based.
From the text: as §2

Data set [28] relates to Mycobacterium intracellulare. The data set can be described thus: In-vitro antimicrobial activity test (MIC, NCCLS). It counts as cell-based.
From the text: as §2

Data set [29] deals with Mycobacterium avium. The data set can be described thus: In-vitro antimicrobial activity test (MIC, NCCLS). It is filed as cell-based.
From the text: as §2

The subject of data set [30] is Chryseobacterium meningosepticum. In words: In-vitro antimicrobial activity test (MIC, NCCLS). It is filed as cell-based.
From the text: as §2

The test system of data set [31] is Bacteroides fragilis. The data set can be described thus: In-vitro antimicrobial activity test (MIC, NCCLS). It counts as cell-based.
From the text: as §2

In data set [32] the test system is Streptococcus pneumoniae ATCC 6303. In words: In-vitro antimicrobial activity test (MIC, NCCLS). It is filed as cell-based.
From the text: as §2

The subject of data set [33] is Staphylococcus aureus ATCC 25923. In words: In-vitro antimicrobial activity test (MIC, NCCLS). It is filed as cell-based.
From the text: as §2

For data set [34], the system named is Pseudomonas aeruginosa. The data set can be described thus: In-vitro antimicrobial activity test (MIC, NCCLS). It is filed as cell-based.
From the text: as §2

The test system of data set [35] is S.aureus strain bearing Nor A efflux pump. It is filed as cell-based. Conditions: Nor A efflux pump strain vs strain devoid of efflux pump. As to the method:
Using this set of MIC values, % loss in potency due to efflux was calculated for each of the fluoroquinolone in Table 5

≈ marks a conversion by molar mass, not a printed value. Read-outs that look alike come from different tables or passages of the source.

As to `C[C@H]1CCc2c(N3CCC(O)CC3)c(F)cc3c(=O)c(C(=O)O)cn1c23.O` [Example 4, S-(−)-9-fluoro-6,7-dihydro-8-(4-hydroxypiperidin-1-yl)-5-methyl-1-oxo-1H,5H-benzo[i,j]quinolizine-2-carboxylic acid 0.75 hydrate], in data set [1], the “Thermal stability with elapsed time at 70° C.” value (“Thermal stability” for short) is on record as 98.3% and the “chemical stability at 70° C., in words” value is “decompose with time”.

For `C[C@H]1CCc2c(N3CCC(O)CC3)c(F)cc3c(=O)c(C(=O)O)cn1c23.C[C@H]1CCc2c(N3CCC(O)CC3)c(F)cc3c(=O)c(C(=O)O)cn1c23.O` [Example 3, S-(−)-9-fluoro-6,7-dihydro-8-(4-hydroxypiperidin-1-yl)-5-methyl-1-oxo-1H,5H-benzo[i,j]quinolizine-2-carboxylic acid 0.5 hydrate], in [1], the “Thermal stability” value worked out at 98.1% and the “chemical stability at 70° C., in words” value is “decompose with time”.

In the case of `C[C@H]1CCc2c(N3CCC(O)CC3)c(F)cc3c(=O)c(C(=O)O)cn1c23.O` [Example 2, S-(−)-9-fluoro-6,7-dihydro-8-(4-hydroxypiperidin-1-yl)-5-methyl-1-oxo-1H,5H-benzo[i,j]quinolizine-2-carboxylic acid 0.2 hydrate], the equilibrium moisture content entry in data set [2] (relative humidity 20% to 95%) is on record as “around 1%”. Moreover, in [1], the “Thermal stability” value is on record as 98.7% and the “chemical stability at 70° C., in words” value is on record as “same degree of chemical stability as the anhydrate”.

For `C[C@H]1CCc2c(N3CCC(O)CC3)c(F)cc3c(=O)c(C(=O)O)cn1c23` [Example 1, S-(−)-9-fluoro-6,7-dihydro-8-(4-hydroxypiperidin-1-yl)-5-methyl-1-oxo-1H,5H-benzo[i,j]quinolizine-2-carboxylic acid anhydrate], the equilibrium moisture content result in [2] (relative humidity 20% to 58%) is “around 0.1%”; in data set [2] (relative humidity 75% to 95%), “around 1%”. In addition, the “Thermal stability” value in [1] (1 week, HPLC) was 98.7%; in [1] (2 week, HPLC), 98.6%; in data set [1] (Initial, HPLC), 98.9%.

With `O=C(O)c1cn(C2CC2)c2cc(N3CCNCC3)c(F)cc2c1=O` [Ciprofloxacin], the “% change in potency at pH 5.5, loss (−)/gain (+)” value (“% change … loss (−)/gain (+)” for short) in data set [3] is recorded as −96%; in data set [4], −75%; in [5] it was −87.5%; in [6], −87%; in data set [7] it was −75%; in [8], −97.5%. The “% change … loss (−)/gain (+)” value in data set [9] is −94%; in data set [10], −97%; in [11], −94%; in [12], −99%; in data set [13], −96%; in data set [14], −97%.

On to `C[C@H]1COc2c(N3CCN(C)CC3)c(F)cc3c(=O)c(C(=O)O)cn1c23` [Levofloxacin], for which the “% change … loss (−)/gain (+)” value in data set [3] was −94%; in data set [4], −75%; in data set [5], −75%; in data set [6], −50%; in [7] it was −75%; in [8], −96%. Further, the “% change … loss (−)/gain (+)” value in data set [9] is on record as −87.5%; in [10] it was −94%; in [11], −94%; in [12], −98%; in [13], −94%; in data set [14], −94%. Besides, the MIC in data set [15] is greater than 12.5 µg/mL; in [16], greater than 12.5 µg/mL; in [17] it was 12.5 µg/mL (≈ 34.6 µM); in data set [18] it was 0.4 µg/mL (≈ 1.11 µM); in data set [19], 1.56 µg/mL (≈ 4.32 µM); in data set [20], 0.4 µg/mL (≈ 1.11 µM). Further, the MIC in data set [21] came out at 1.56 µg/mL (≈ 4.32 µM); in data set [22], 0.03 µg/mL (≈ 0.083 µM); in [23], 1 µg/mL (≈ 2.77 µM); in data set [24] it was 0.8 µg/mL (≈ 2.21 µM); in data set [25], 0.05 µg/mL (≈ 0.138 µM); in data set [26] it was 0.4 µg/mL (≈ 1.11 µM). Further, the MIC in data set [27] stood at 0.1 µg/mL (≈ 0.277 µM); in data set [28], 0.8 µg/mL (≈ 2.21 µM); in data set [29] it was 12.5 µg/mL (≈ 34.6 µM); in [30] it was 6.25 µg/mL (≈ 17.3 µM); in [31], 6.25 µg/mL (≈ 17.3 µM); in data set [32], 0.8 µg/mL (≈ 2.21 µM). For the same compound, the MIC in data set [33] was 0.2 µg/mL (≈ 0.553 µM); in data set [34], 3.12 µg/mL (≈ 8.63 µM).

As to `CCn1cc(C(=O)O)c(=O)c2cc(F)c(N3CCNCC3)cc21` [Norfloxacin], the “% loss in potency for S. aureus bearing Efflux pump” value (“% loss in potency” below) in data set [35] was 97%.

Regarding `COc1c(N2CCNC(C)C2)c(F)cc2c(=O)c(C(=O)O)cn(C3CC3)c12` (centres unmarked) [Gatifloxacin], the “% loss in potency” value in data set [35] turned out to be 75%.

As for `CO/N=C1\CN(c2nc3c(cc2F)c(=O)c(C(=O)O)cn3C2CC2)CC1CN` (centres unmarked) [Gemifloxacin], the “% loss in potency” value in data set [35] turned out to be 75%.

As to `C/C(=C\C(=O)OCCCCCCCCC(=O)O)C[C@@H]1OC[C@H](C[C@@H]2O[C@H]2[C@@H](C)[C@H](C)O)[C@@H](O)[C@H]1O` [Mupirocin], the MIC is 0.2 µg/mL (≈ 0.399 µM) in data set [15]; 0.4 µg/mL (≈ 0.799 µM) in data set [16]; greater than 400 µg/mL in data set [17]; greater than 12.5 µg/mL in [18]; 0.2 µg/mL (≈ 0.399 µM) in data set [19]; greater than 0.8 µg/mL in data set [21]. In addition, the MIC in data set [23] was greater than 1000 µg/mL; in [24], greater than 12.5 µg/mL; in [26], 0.025 µg/mL (≈ 0.0499 µM); in [32] it was 0.2 µg/mL (≈ 0.399 µM); in data set [33], 0.4 µg/mL (≈ 0.799 µM).

Take `NC1CCN(c2c(F)cc3c(=O)c(C(=O)O)cn(C4CC4)c3c2Cl)C1` (centres unmarked) [Clinafloxacin]: the “% loss in potency” value in data set [35] is given as 87.5%.

The values are drawn from US6750224B1, “Antibacterial optically pure benzoquinolizine carboxylic acids, processes, compositions and methods of treatment” (priority 1999, dated 2004).
